Columns and labels:
[1] = system: SNU-C4 xenografted nude mice; assay: PET imaging of tumor xenografted mice; type: in vivo, mouse; conditions: PET at 1 and 2 hr post-injection, FIG. 2
Method: Human colon cancer cell line SNU-C4 was cultured in RPMI1640 media containing 10% fetal bovine serum and harvested using trypsin. The cells were washed using 10 mL PBS and centrifugation at 3,000 rpm. Each nude mouse was injected with 2×10^5 cells/0.1 mL on the right shoulder subcutaneously. On 14 days post-injection, each 10 μCi/0.1 mL of ^68Ga labeled agent was injected into the xenografted mice through the tail vein. The injected mice were anesthetized using 2% isoflurane, PET images were obtained at 1 and 2 hr post-injection using rodent R4, microPET scanner (Concorde Microsystem Inc.). The images were analyzed using ASIPro software (Concorde Microsystem Inc.).

[2] = system: SNU-C4 xenografted nude mice; assay: Biodistribution study in SNU-C4 xenografted nude mice after intravenous injection; type: in vivo, mouse; conditions: for % ID/g Tumor: SNU-C4 tumor; for tumor uptake compared with the control heterocyclic compound (in words): SNU-C4 xenografted nude mice, 10 min to 2 hr
Method: Human colon cancer cell line SNU-C4 was cultured in RPMI1640 media containing 10% fetal bovine serum and harvested using trypsin. The cells were washed using 10 mL PBS and centrifugation at 3,000 rpm. Each nude mouse was injected with 2×10^5 cells/0.1 mL on the right shoulder subcutaneously. On 13 days post-injection, each 10 μCi/0.1 mL of ^68Ga labeled agent was injected into the xenografted mice through the tail vein. The injected mice were sacrificed at 10 min, 30 min, 1 hr, and 2 hr, cancer, blood, muscle, heart, liver, spleen, stomach, intestine, and bone were obtained, weighed, and their radioactivities were counted. The results were expressed as percentages of injected dose per gram tissue (% ID/g).

[3] = system: CT-26 cells; assay: In vitro cell uptake, CT-26 (FIG. 1b); type: cell-based, mouse; conditions: controls ^68Ga-DO2A, ^68Ga-DO3A
Method: (§1) Human colon cancer cell line SNU-C4 was purchased from Korea Cell Line Bank (KCLB). Human thyroid cell line ARO, human liver cancer cell line Hep3B, human glioma cell line U251MG and U87MG, and mouse colon cell line CT-26 were purchased from American Type Culture Collection (ATCC). SNU-C4 and ARO were culture in RPMI1640 (Welgene Inc., Korea) and Hep3B, U251 MG, U87MG, and CT-26 were cultured in DMEM (Welgene Inc., Korea). Penicillin, streptomycin and amphotericin B (10,000 IU/mL, 10 mg/mL and 25 μg/mL, respectively, Mediatech Inc., U.S.A.) 1% mixture and fetal bovine serum (Welgene Inc., Korea) were added to all cell culture media. Cell culture was done in 37° C. incubator with supply of 5% CO2.
(§2) About 1.8×10^5 cells/mL CT-26 and 1.2×10^5 cells/mL U87MG were put into 24-well incubation plate and incubated for 20 hr. When the each well was about 80% confluent with cells, 296 kBq/0.5 mL of ^68Ga labeled agent was added to each well. Culture supernatants were discarded at each time point and cells were washed with ice-cooled Hank's balanced salt solution (HBSS, pH7.3, Gibco, U.S.A.) 2 times. The cells were dissolved by 0.5% sodium dodecylsulfate (SDS), recovered and counted using a gamma counter (Packard, Can berra Co., U.S.A.). Total protein amount in each sample was measured by bicinchonic acid (BCA, Pierce, U.S.A.) method.

[4] = system: U87MG cells; assay: In vitro cell uptake, U87MG (FIG. 1a); type: cell-based, human; conditions: controls ^68Ga-DOTA, ^68Ga-NOTA
Method: as §1, §2

[5] = system: Hep3B cells; assay: In vitro cell uptake, Hep3B (FIG. 1c); type: cell-based, human; conditions: control ^68Ga-NOTA
[6] = 10 min after intravenous injection
[7] = 30 min after intravenous injection
[8] = 1 hr after intravenous injection
[9] = 2 hr after intravenous injection

N[C@@H](CN1CCN(CC(=O)[O-])CCN(CC(=O)[O-])CCN(CC(=O)[O-])CC1)C(=O)O.[68Ga+3] (stereo in doubt) [^68Ga-DO3A-ala]
tumor uptake in PET images [1]: high tumor uptakes
% ID/g Tumor [2, 6]: 3.22 ± 0.90 % ID/g
% ID/g Tumor [2, 7]: 2.49 ± 0.40 % ID/g
% ID/g Tumor [2, 8]: 2.44 ± 0.46 % ID/g
% ID/g Tumor [2, 9]: 2.98 ± 0.58 % ID/g
tumor uptake compared with the control heterocyclic compound (in words) [2]: higher and increasing by time
% ID/g Blood [2, 6]: 11.12 ± 0.49 % ID/g
% ID/g Blood [2, 7]: 8.35 ± 0.29 % ID/g
% ID/g Blood [2, 8]: 7.97 ± 1.29 % ID/g
% ID/g Blood [2, 9]: 6.07 ± 1.13 % ID/g
% ID/g Bone [2, 6]: 4.06 ± 0.44 % ID/g
% ID/g Bone [2, 7]: 3.63 ± 0.49 % ID/g
% ID/g Bone [2, 8]: 4.73 ± 0.69 % ID/g
% ID/g Bone [2, 9]: 5.00 ± 2.41 % ID/g
% ID/g Heart [2, 6]: 2.70 ± 0.18 % ID/g
% ID/g Heart [2, 7]: 1.80 ± 0.22 % ID/g
% ID/g Heart [2, 8]: 1.69 ± 0.40 % ID/g
% ID/g Heart [2, 9]: 1.30 ± 0.40 % ID/g
% ID/g Intestine [2, 6]: 2.48 ± 0.13 % ID/g
% ID/g Intestine [2, 7]: 1.74 ± 0.14 % ID/g
% ID/g Intestine [2, 8]: 1.87 ± 0.33 % ID/g
% ID/g Intestine [2, 9]: 4.38 ± 1.14 % ID/g
% ID/g Kidney [2, 6]: 60.06 ± 14.07 % ID/g
% ID/g Kidney [2, 7]: 9.10 ± 2.19 % ID/g
% ID/g Kidney [2, 8]: 4.82 ± 0.99 % ID/g
% ID/g Kidney [2, 9]: 6.06 ± 2.27 % ID/g
% ID/g Liver [2, 6]: 2.58 ± 0.07 % ID/g
% ID/g Liver [2, 7]: 2.30 ± 0.13 % ID/g
% ID/g Liver [2, 8]: 2.35 ± 0.25 % ID/g
% ID/g Liver [2, 9]: 2.52 ± 0.41 % ID/g
% ID/g Lung [2, 6]: 13.60 ± 2.37 % ID/g
% ID/g Lung [2, 7]: 9.35 ± 1.00 % ID/g
% ID/g Lung [2, 8]: 8.40 ± 1.17 % ID/g
% ID/g Lung [2, 9]: 8.04 ± 0.83 % ID/g
% ID/g Muscle [2, 6]: 3.52 ± 0.42 % ID/g
% ID/g Muscle [2, 7]: 2.03 ± 0.41 % ID/g
% ID/g Muscle [2, 8]: 1.38 ± 0.39 % ID/g
% ID/g Muscle [2, 9]: 1.33 ± 0.48 % ID/g
% ID/g Spleen [2, 6]: 2.59 ± 0.30 % ID/g
% ID/g Spleen [2, 7]: 2.33 ± 0.15 % ID/g
% ID/g Spleen [2, 8]: 2.33 ± 0.44 % ID/g
% ID/g Spleen [2, 9]: 2.19 ± 0.35 % ID/g
% ID/g Stomach [2, 6]: 1.97 ± 0.18 % ID/g
% ID/g Stomach [2, 7]: 1.53 ± 0.17 % ID/g
% ID/g Stomach [2, 8]: 1.53 ± 0.37 % ID/g
% ID/g Stomach [2, 9]: 11.42 ± 5.04 % ID/g
tumor cell uptake versus control agents [3]: significantly increase tumor cell uptakes

NC(CNC(=O)CN1CCN(CC(=O)[O-])CCN(CC(=O)[O-])CC1)C(=O)[O-].[68Ga+3] (stereo not drawn) [^68Ga-NOTA-ala]
tumor cell uptake versus control agents [4]: significantly increase tumor cell uptakes
PET image quality [1]: the highest quality image
tumor uptake in PET images [1]: high tumor uptakes
% ID/g Tumor [2, 6]: 2.87 ± 0.58 % ID/g
% ID/g Tumor [2, 7]: 1.40 ± 0.43 % ID/g
% ID/g Tumor [2, 8]: 0.73 ± 0.25 % ID/g
% ID/g Tumor [2, 9]: 0.61 ± 0.34 % ID/g
tumor uptake compared with the control heterocyclic compound (in words) [2]: higher and increasing by time
tumor uptake relative to that of ^68Ga-NOTA ([2]; at 10 min): 1.07 times
tumor uptake relative to that of ^68Ga-NOTA ([2]; at 30 min): 1.09 times
tumor uptake relative to that of ^68Ga-NOTA ([2]; at 1 hr): 1.24 times
tumor uptake relative to that of ^68Ga-NOTA ([2]; at 2 hr): 1.42 times
% ID/g Blood [2, 6]: 7.46 ± 0.78 % ID/g
% ID/g Blood [2, 7]: 2.69 ± 0.59 % ID/g
% ID/g Blood [2, 8]: 0.73 ± 0.05 % ID/g
% ID/g Blood [2, 9]: 0.15 ± 0.03 % ID/g
% ID/g Bone [2, 6]: 2.22 ± 0.34 % ID/g
% ID/g Bone [2, 7]: 1.05 ± 0.35 % ID/g
% ID/g Bone [2, 8]: 0.47 ± 0.09 % ID/g
% ID/g Bone [2, 9]: 0.10 ± 0.07 % ID/g
% ID/g Heart [2, 6]: 2.13 ± 0.13 % ID/g
% ID/g Heart [2, 7]: 0.71 ± 0.17 % ID/g
% ID/g Heart [2, 8]: 0.26 ± 0.03 % ID/g
% ID/g Heart [2, 9]: 0.10 ± 0.05 % ID/g
% ID/g Intestine [2, 6]: 1.74 ± 0.22 % ID/g
% ID/g Intestine [2, 7]: 0.77 ± 0.19 % ID/g
% ID/g Intestine [2, 8]: 0.44 ± 0.07 % ID/g
% ID/g Intestine [2, 9]: 0.35 ± 0.11 % ID/g
% ID/g Kidney [2, 6]: 20.96 ± 7.35 % ID/g
% ID/g Kidney [2, 7]: 9.07 ± 1.68 % ID/g
% ID/g Kidney [2, 8]: 5.81 ± 0.57 % ID/g
% ID/g Kidney [2, 9]: 4.04 ± 0.63 % ID/g
% ID/g Liver [2, 6]: 2.08 ± 0.25 % ID/g
% ID/g Liver [2, 7]: 1.34 ± 0.22 % ID/g
% ID/g Liver [2, 8]: 1.05 ± 0.04 % ID/g
% ID/g Liver [2, 9]: 0.84 ± 0.18 % ID/g
% ID/g Muscle [2, 6]: 2.29 ± 0.52 % ID/g
% ID/g Muscle [2, 7]: 0.87 ± 0.33 % ID/g
% ID/g Muscle [2, 8]: 0.26 ± 0.05 % ID/g
% ID/g Muscle [2, 9]: 0.06 ± 0.04 % ID/g
% ID/g Spleen [2, 6]: 1.84 ± 0.10 % ID/g
% ID/g Spleen [2, 7]: 0.93 ± 0.14 % ID/g
% ID/g Spleen [2, 8]: 0.55 ± 0.07 % ID/g
% ID/g Spleen [2, 9]: 0.48 ± 0.11 % ID/g
% ID/g Stomach [2, 6]: 2.46 ± 0.31 % ID/g
% ID/g Stomach [2, 7]: 0.79 ± 0.17 % ID/g
% ID/g Stomach [2, 8]: 0.33 ± 0.08 % ID/g
% ID/g Stomach [2, 9]: 0.18 ± 0.05 % ID/g
tumor cell uptake versus control agents [5]: significantly increase tumor cell uptakes

Reference: patent US20120029177A1, “HETEROCYCLE-AMINO ACID DERIVATIVES FOR TARGETING CANCER TISSUE AND RADIOACTIVE OR NON-RADIOACTIVE LABELED COMPOUNDS THEREOF” (SNU R&DB FOUNDATION, priority 2009, published 2012)
